Results published in patent USRE38460E1 (priority 1994, dated 2004).
Where two headings read alike, the source gives them in different places.

How the values were obtained:
[1] = biological target: T1, BuChE (Rattus norvegicus, UniProt Q9JKC1); experiment: In-vitro anticholinesterase effect (Table 6), BuChE; type: biochemical; conditions: for inhibition at 10 µM: read-out: inhibition activity BuChE at 10(μM); for inhibition activity BuChE at 10(μM): Table 6
T1 construct: from tissue; host or cells: rat serum
T1 sequence (Q9JKC1 24-597): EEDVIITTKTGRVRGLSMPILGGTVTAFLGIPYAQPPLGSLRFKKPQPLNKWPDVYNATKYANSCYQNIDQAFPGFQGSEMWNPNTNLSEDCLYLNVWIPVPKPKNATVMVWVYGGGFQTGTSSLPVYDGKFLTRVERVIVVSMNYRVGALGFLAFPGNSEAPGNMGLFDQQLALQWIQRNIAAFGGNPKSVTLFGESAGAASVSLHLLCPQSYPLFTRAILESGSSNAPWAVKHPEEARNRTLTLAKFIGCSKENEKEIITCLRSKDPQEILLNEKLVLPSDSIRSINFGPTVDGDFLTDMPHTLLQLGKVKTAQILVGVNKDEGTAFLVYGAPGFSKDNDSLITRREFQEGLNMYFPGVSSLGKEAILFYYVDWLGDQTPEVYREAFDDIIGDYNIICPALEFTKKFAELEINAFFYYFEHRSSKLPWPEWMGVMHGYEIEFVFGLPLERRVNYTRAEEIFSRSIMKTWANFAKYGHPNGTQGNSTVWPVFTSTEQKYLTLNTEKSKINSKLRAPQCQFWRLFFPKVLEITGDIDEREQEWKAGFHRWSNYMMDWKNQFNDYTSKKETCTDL
Procedure: (§1) In the present invention a calorimetric method reported by Ellman was used to determine the effect of inhibition of the pharmaceutical on enzyme activity. The total volume of the solution of the enzyme activity reaction was 4 ml, which contained 0.3 mmol/L of acetylcholin iodide (acetylcholinesterase substrate), or 0.4 mmol/L of butyrylcholin iodide (butyrylcholinesterase substrate), 1 ml of the buffer solution of 25 mmol/L of phosphate of pH 7.4, and water to make up to 4 ml (including the amount of the enzyme solution and the testing reagent added afterwards). After the solution was kept at 37° C. for 5 minutes, 0.1-0.2 ml of enzyme solution (red cell membrane or serum of rat) was added, or 0.1-0.3 ml of the testing reagent was added at the same time. The solution was kept at the same temperature for another 8 minutes. Then 1 ml of 3% of sodium lauryl sulphate was added to terminate the reaction. Finally 1 ml of 0.2% 5,5-dithio-2,2′-nitro-benzoic acid solution was added for developing.

[2] = biological target: T2, butyrylcholinesterase (BuChE) (Rattus norvegicus, UniProt Q9JKC1); experiment: In-vitro anticholinesterase effect, colorimetric method (Ellman), BuChE from rat's serum; type: biochemical
T2 construct: from tissue; host or cells: rat serum
T2 sequence (Q9JKC1 24-597): as above
Procedure: as §1
(§2) AChE taken from rat's red cell membrane. BuChE taken from rat's serum.
(§3) AChE taken from homogenate of rat's cortex. BuChE taken from rat's serum.

[3] = biological target: T3, acetylcholinesterase (AChE) (Rattus norvegicus, UniProt P37136); experiment: biochemical; type: biochemical
T3 construct: from tissue; host or cells: rat red cell membrane
Procedure: as §1, §2
T3 sequence (P37136 other isoform, or with tags, fused parts or gaps): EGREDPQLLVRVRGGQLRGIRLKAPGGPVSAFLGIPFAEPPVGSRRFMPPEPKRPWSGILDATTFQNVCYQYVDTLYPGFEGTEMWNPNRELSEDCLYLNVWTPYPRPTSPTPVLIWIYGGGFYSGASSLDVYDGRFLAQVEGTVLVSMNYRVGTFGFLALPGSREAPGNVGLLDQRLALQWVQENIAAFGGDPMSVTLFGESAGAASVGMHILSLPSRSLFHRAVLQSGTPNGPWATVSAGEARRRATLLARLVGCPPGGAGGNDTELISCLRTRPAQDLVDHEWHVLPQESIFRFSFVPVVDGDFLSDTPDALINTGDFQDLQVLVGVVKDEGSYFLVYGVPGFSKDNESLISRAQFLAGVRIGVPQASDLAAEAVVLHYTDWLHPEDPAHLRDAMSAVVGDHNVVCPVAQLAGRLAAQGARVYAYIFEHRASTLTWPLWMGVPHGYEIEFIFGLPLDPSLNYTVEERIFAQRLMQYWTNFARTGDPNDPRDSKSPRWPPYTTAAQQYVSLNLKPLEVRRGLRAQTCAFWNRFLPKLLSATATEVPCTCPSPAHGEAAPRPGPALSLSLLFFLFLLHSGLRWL

[4] = biological target: T4, acetylcholinesterase (AChE) (Rattus norvegicus, UniProt P37136); experiment: biochemical; type: biochemical; conditions: for IC50 ratio BuChE/AChE: cortex AChE, serum BuChE
T4 construct: from tissue; host or cells: homogenate of rat cortex
T4 sequence (P37136 32-614): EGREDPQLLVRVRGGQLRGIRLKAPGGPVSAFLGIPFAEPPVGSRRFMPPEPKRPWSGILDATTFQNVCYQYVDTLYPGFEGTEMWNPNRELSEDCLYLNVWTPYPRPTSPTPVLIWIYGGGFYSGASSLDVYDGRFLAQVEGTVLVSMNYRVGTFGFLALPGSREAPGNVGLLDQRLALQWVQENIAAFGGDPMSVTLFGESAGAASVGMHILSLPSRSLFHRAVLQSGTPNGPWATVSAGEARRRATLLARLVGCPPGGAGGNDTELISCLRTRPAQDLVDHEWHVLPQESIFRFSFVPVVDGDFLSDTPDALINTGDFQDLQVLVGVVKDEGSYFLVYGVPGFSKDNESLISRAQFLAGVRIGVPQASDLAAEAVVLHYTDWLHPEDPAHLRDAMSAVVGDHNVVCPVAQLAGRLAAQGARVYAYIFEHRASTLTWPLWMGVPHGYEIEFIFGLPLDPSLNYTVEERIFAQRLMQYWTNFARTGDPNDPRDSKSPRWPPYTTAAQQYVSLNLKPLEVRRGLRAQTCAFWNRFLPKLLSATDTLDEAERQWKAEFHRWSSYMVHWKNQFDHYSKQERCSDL
Procedure: as §1, §3

[5] = biological target: T5, AChE (Rattus norvegicus, UniProt P37136); experiment: biochemical
T5 construct: 0.1-0.2 ml of enzyme solution (red cell membrane or serum of rat) was added; from tissue; host or cells: rat tissue
T5 sequence (P37136 32-614): T4 sequence (P37136 32-614)
Procedure: as §1

[6] = test system: memory impairment caused by scopolamine; experiment: 8-arm maze spatial distinction operation of rat, memory impairment caused by scopolamine; type: in vivo; conditions: rats, 8-arm maze; scopolamine + huperzine A 0.15 + 0.25 mg/kg ip + po
[7] = Critical toxicity on mice (Bliss method); type: in vivo; conditions: mouse, in vivo, po, mice, p.o., Bliss method, mortality within 7 days
Procedure: Test of each pharmaceutical was carried out using 4-5 dosage group.
Mortality within 7 days was observed.

[8] = read-out: concentration for inhibition of 50% of enzyme activity (IC50) acetylcholinesterase (AChE)
[9] = read-out: concentration for inhibition of 50% of enzyme activity (IC50) butyrylcholinesterase (BuChE), Table 1, BuChE taken from rat's serum
[10] = read-out: concentration for inhibition of 50% of enzyme activity (IC50) butyrylcholinesterase (BuChE), Table 2, BuChE taken from rat's serum
[11] = read-out: concentration for inhibition of 50% of enzyme activity (IC50) acetylcholinesterase (AChE), Table 2, AChE taken from homogenate of rat's cortex
[12] = Table 1, AChE taken from rat's red cell membrane
[13] = read-out: inhibition activity AChE IC50
[14] = Table 2, AChE taken from homogenate of rat's cortex
[15] = Table 6, read-out: inhibition activity AChE IC50

COc1cc2c(cc1OC)C(=O)C(CC1CCN(Cc3ccccc3)CC1)C2 (stereo not drawn) [E-2020, reference compound]
inhibition at 10 µM [1]: 2.9%

CNC(=O)Oc1ccc2c(c1)[C@]1(C)CCN(C)[C@@H]1N2C [Physostigmine, reference compound]
IC50 [2]: 1260 nM

CC=C1C2C=C(C)CC1(NC(=O)CCC(=O)O)c1ccc(=O)[nH]c1C2 (stereo not drawn) [derivative No. 1]
IC50 ratio BuChE/AChE [3]: 1092.5 | inhibition effect on acetylcholinesterase (in words) [3]: remarkable inhibition effect | inhibition effect on acetylcholinesterase compared with huperzine A [3]: slightly weaker | inhibition effect on acetylcholinesterase compared with physostigmine and galanthamine [3]: apparently stronger | selective inhibition effect on acetylcholinesterase compared with huperzine A [3]: greater selective inhibition effect | IC50 [3, 8]: 348 nM | IC50 [2, 9]: 380000 nM | IC50 [2, 10]: 380000 nM | inhibition effect on butyrylcholinesterase (pseudo enzyme) compared with huperzine A ([2]; see Tables 1, 2 and 6): weaker inhibition effect | IC50 ratio BuChE/AChE ([4]; Table 2): 1094.1 | IC50 [4, 11]: 348 nM

CC=C1C2C=C(C)CC1(NC(=O)Cc1ccccc1)c1ccc(=O)[nH]c1C2 (stereo not drawn) [derivative No. 2]
IC50 [3, 12]: 9050 nM | IC50 [2]: > 347000 nM

CC=C1C2C=C(C)CC1(NC(=O)c1cccnc1)c1ccc(=O)[nH]c1C2 (stereo not drawn) [derivative No. 4]
IC50 [3, 12]: > 12900 nM | IC50 [2]: 58900 nM

CC=C1C2C=C(C)CC1(NC(=O)c1cccnc1)c1ccc(=O)n(C(=O)c3cccnc3)c1C2 (stereo not drawn) [derivative No. 5]
IC50 [3, 12]: > 11000 nM | IC50 [2]: > 275000 nM

CC=C1C2C=C(C)CC1(NC(=O)C1=CN(C)CC=C1)c1ccc(=O)[nH]c1C2 (stereo not drawn) [derivative No. 6]
IC50 ([3]; read-out: concentration for inhibition of 50% of enzyme activity (IC50) acetylcholinesterase (AChE), Table 1, AChE taken from rat's red cell membrane): > 12300 nM | IC50 [2, 9]: > 309000 nM

CC=C1C2C=C(C)CC1(NC(=O)C(C)C)c1ccc(=O)[nH]c1C2 (stereo not drawn) [derivative No. 10]
IC50 [3, 8]: > 15800 nM | IC50 [2, 9]: 110000 nM

CC=C1C2C=C(C)CC1(NC(=O)c1ccccc1)c1ccc(=O)[nH]c1C2 (stereo not drawn) [derivative No. 11]
IC50 [3, 8]: > 14400 nM | IC50 [2, 9]: 363000 nM

CC=C1C2C=C(C)CC1(NC(=O)c1ccccn1)c1ccc(=O)[nH]c1C2 (stereo not drawn) [derivative No. 12]
IC50 [2, 10]: 251000 nM | IC50 ratio BuChE/AChE ([4]; Table 2): 1995.2 | IC50 [4, 11]: 126 nM

CC=C1C2C=C(C)CC1(NC(=O)c1ccncc1)c1ccc(=O)[nH]c1C2 (stereo not drawn) [derivative No. 14]
BuChE/AChE [5]: >100 | inhibition activity AChE at 1(μM) [5]: 76.4 | IC50 [5, 13]: 360 nM | inhibition activity BuChE at 10(μM) [1]: 2.5

CC=C1C2C=C(C)CC1(NC(=O)c1ccccc1C(=O)O)c1ccc(=O)[nH]c1C2 (stereo not drawn) [derivative No. 15]
IC50 [2, 10]: 502000 nM | IC50 ratio BuChE/AChE ([4]; Table 2): 795.6 | IC50 [4, 11]: 631 nM | inhibition activity AChE at 1(μM) [5]: 60.8 | inhibition activity BuChE at 10(μM) [1]: 0

CC=C1C2C=C(C)CC1(NC(=O)/C=C/CC(=O)O)c1ccc(=O)[nH]c1C2 (stereo not drawn) [derivative No. 16]
BuChE/AChE [5]: >200 | inhibition activity AChE at 1(μM) [5]: 80.7 | IC50 [5, 13]: 210 nM | inhibition activity BuChE at 10(μM) [1]: 1.8

CC=C1C2C=C(C)CC1(N=Cc1ccccc1O)c1ccc(=O)[nH]c1C2 (stereo not drawn) [derivative No. 20]
IC50 [2]: 126000 nM | IC50 [4, 14]: 178 nM | IC50 ratio BuChE/AChE ([4]; Table 2): 708.1 | IC50 [5]: 94 nM | BuChE/AChE ([5]; Table 6): >500 | inhibition at 1 µM ([5]; Table 6): 83.7% | inhibition at 10 µM [1]: 0%

CC=C1C2C=C(C)CC1(N=Cc1cc(OC)c(OC)c(OC)c1)c1ccc(=O)[nH]c1C2 (stereo not drawn) [derivative No. 21]
IC50 [2]: 158000 nM | IC50 [4, 14]: 141 nM | inhibition at 1 µM ([5]; Table 6): 84.9% | inhibition at 10 µM [1]: 0%

CC=C1C2C=C(C)CC1(N=Cc1ccc(OC)c(OC)c1O)c1ccc(=O)[nH]c1C2 (stereo not drawn) [derivative No. 22]
IC50 [2]: 126000 nM | IC50 [4, 14]: 126 nM | IC50 ratio BuChE/AChE ([4]; Table 2): 1000.0 | inhibition at 1 µM ([5]; Table 6): 68.7% | inhibition at 10 µM [1]: 0%

CC=C1C2C=C(C)CC1(N=Cc1ccc(O)cc1O)c1ccc(=O)[nH]c1C2 (stereo not drawn) [derivative No. 23]
IC50 [2]: 200000 nM | IC50 [4, 14]: 251 nM | IC50 ratio BuChE/AChE ([4]; Table 2): 794.2 | inhibition at 1 µM ([5]; Table 6): 34.4% | inhibition at 10 µM [1]: 0%

CC=C1C2C=C(C)CC1(N=Cc1cccc(O)c1O)c1ccc(=O)[nH]c1C2 (stereo not drawn) [derivative No. 24]
IC50 [4, 14]: 100 nM | inhibition at 1 µM ([5]; Table 6): 78.3% | IC50 [5, 15]: 280 nM | inhibition at 10 µM [1]: 0%

CC=C1C2C=C(C)CC1(N=Cc1ccc(O)c(O)c1O)c1ccc(=O)[nH]c1C2 (stereo not drawn) [derivative No. 25]
IC50 [2]: 251000 nM | IC50 [4, 14]: 159 nM | IC50 ratio BuChE/AChE ([4]; Table 2): 1584.9 | inhibition at 1 µM ([5]; Table 6): 62% | inhibition at 10 µM [1]: 0%

CC=C1C2C=C(C)CC1(N=Cc1cccc(OC)c1O)c1ccc(=O)[nH]c1C2 (stereo not drawn) [derivative No. 26]
BuChE/AChE ([5]; Table 6): >300 | inhibition at 1 µM ([5]; Table 6): 79.7% | IC50 [5, 15]: 180 nM | inhibition at 10 µM [1]: 1.1%

CC=C1C2C=C(C)CC1(N=CC=Cc1ccccc1)c1ccc(=O)[nH]c1C2 (stereo not drawn) [derivative No. 27]
IC50 [2]: 100000 nM | IC50 [4]: 126 nM | IC50 ratio BuChE/AChE ([4]; Table 2): 794.3 | BuChE/AChE ([5]; Table 6): >500 | inhibition at 1 µM ([5]; Table 6): 84% | IC50 [5, 15]: 110 nM | inhibition at 10 µM [1]: 3.3%

CC=C1C2C=C(C)CC1(N=Cc1cccnc1)c1ccc(=O)[nH]c1C2 (stereo not drawn) [derivative No. 44]
BuChE/AChE ([5]; Table 6): >500 | inhibition at 1 µM ([5]; Table 6): 85.6% | IC50 [5, 15]: 110 nM | inhibition at 10 µM [1]: 1.8%

C/C=C1\C2C=C(C)C[C@]1(N)c1ccc(=O)[nH]c1C2 [huperzine A, (5R, 9R, 11E)-5-amino-11-ethylidene-5,6,9,10-tetrahydro-7-methyl-5,9-methylene cycloocta [b] pyridyl-2(1H)-one, reference compound]
No. of mistakes in operation before reaching the standard, reference memory (X + SEM) [6]: 0.57 | No. of mistakes in operation before reaching the standard, working memory (X + SEM) [6]: 0.86 | LD50 at 7 days ([7]; first of two columns headed LD50, read-out: LD50 (first column) (95% confidence limit)): 3.1 mg/kg | LD50 at 7 days ([7]; second of two columns headed LD50, read-out: LD50 (second column) (95% confidence limit)): 4.6 mg/kg
